Nine molecules from ChEMBL document CHEMBL3414550 (J Med Chem, 2015) can be followed below.

Data set [1] can be described thus: Retention time of the compound by RP-HPLC analysis. Format: physicochemical.
Data set [2] concerns the target T1, Vasopressin V2 receptor (Homo sapiens, UniProt P30518). The data set can be described thus: Binding affinity to V2R (unknown origin) expressed in HEK293 cells by TR-FRET assay. Type of data set: cell-based. Background: In TR-FRET formats the signal depends on donor and acceptor labels being close together.
Data set [3] has as its target T2, Vasopressin V1a receptor (Homo sapiens, UniProt P37288). The data set can be described thus: Binding affinity to V1aR (unknown origin) expressed in HEK293 cells by TR-FRET assay. Format: cell-based.
Data set [4] has as its target T3, Oxytocin receptor (Homo sapiens, UniProt P30559).
T3 sequence (P30559 whole entry): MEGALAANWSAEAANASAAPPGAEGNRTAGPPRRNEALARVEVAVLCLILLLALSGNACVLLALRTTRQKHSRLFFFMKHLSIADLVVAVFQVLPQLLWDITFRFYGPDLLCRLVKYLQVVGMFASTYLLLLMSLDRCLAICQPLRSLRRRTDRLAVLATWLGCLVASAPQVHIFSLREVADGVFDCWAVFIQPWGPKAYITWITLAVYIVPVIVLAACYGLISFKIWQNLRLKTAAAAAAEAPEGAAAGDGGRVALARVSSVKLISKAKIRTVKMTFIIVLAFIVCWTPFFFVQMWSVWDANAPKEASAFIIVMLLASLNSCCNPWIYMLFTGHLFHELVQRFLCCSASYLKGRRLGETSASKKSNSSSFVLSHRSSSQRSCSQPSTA
The data set can be described thus: Binding affinity to SNAP-tagged oxytocin receptor (unknown origin) expressed in HEK293 cells by TR-FRET assay. Type of data set: cell-based.

The target in data set [5] is T4, Vasopressin V1b receptor (Homo sapiens, UniProt P47901).
T4 sequence (P47901 whole entry): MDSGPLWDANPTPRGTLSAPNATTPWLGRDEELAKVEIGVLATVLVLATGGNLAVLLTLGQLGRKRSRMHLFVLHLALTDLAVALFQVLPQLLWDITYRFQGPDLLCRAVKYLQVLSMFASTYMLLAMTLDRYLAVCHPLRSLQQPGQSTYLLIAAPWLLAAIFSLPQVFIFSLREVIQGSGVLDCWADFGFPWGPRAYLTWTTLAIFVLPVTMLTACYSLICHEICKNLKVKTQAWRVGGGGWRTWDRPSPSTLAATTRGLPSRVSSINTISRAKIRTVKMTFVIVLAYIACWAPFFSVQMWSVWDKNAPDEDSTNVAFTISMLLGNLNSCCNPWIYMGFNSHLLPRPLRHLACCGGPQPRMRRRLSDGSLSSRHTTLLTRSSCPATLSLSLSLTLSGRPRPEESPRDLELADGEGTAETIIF
The data set can be described thus: Binding affinity to V1bR (unknown origin) expressed in HEK293 cells by TR-FRET assay. Type of data set: cell-based.

Data set [6] deals with T3, Oxytocin receptor. The data set can be described thus: Binding affinity to SNAP-tagged oxytocin receptor (unknown origin) expressed in HEK293 cells assessed as association constant after 5 to 120 mins by TR-FRET assay. Type of data set: cell-based.
Data set [7] has as its target T3, Oxytocin receptor. The data set can be described thus: Binding affinity to SNAP-tagged oxytocin receptor (unknown origin) expressed in HEK293 cells assessed as dissociation constant after 5 to 120 mins by TR-FRET assay. Format: cell-based.
The species named for data set [8] is Homo sapiens. The data set can be described thus: Selectivity ratio of Kd for V1aR (unknown origin) to Kd for SNAP-tagged oxytocin receptor (unknown origin).
The target of data set [9] is T3, Oxytocin receptor. The data set can be described thus: Binding affinity to OTR (unknown origin).
Data set [10] concerns the target T3, Oxytocin receptor. The data set can be described thus: Competitive binding to SNAP-tagged oxytocin receptor (unknown origin) expressed in HEK293 cells incubated for 1 hr at RT followed by 4 hrs at 4 degC by TR-FRET assay in presence of 5-(3-(22-(3-carboxy-4-(3-oxo-3H-xanthen-9-yl)phenyl)-15,22-dioxo-2,5,8,11-tetraoxa-14,21-diazadocosyl)-5-(3-(2-chloro-4-fluorophenoxy)azetidin-1-yl)-4H-1,2,4-triazol-4-yl)-2-methoxypyridinium 2,2,2-trifluoroacetate. Format: cell-based.

Data set [11] deals with T1, Vasopressin V2 receptor. The data set can be described thus: Binding affinity to V2R (unknown origin).
Data set [12] addresses T2, Vasopressin V1a receptor. The data set can be described thus: Binding affinity to V1aR (unknown origin).
Data set [13] concerns the target T3, Oxytocin receptor. The data set can be described thus: Competitive binding to SNAP-tagged oxytocin receptor (unknown origin) expressed in HEK293 cells incubated for 1 hr at RT followed by 4 hrs at 4 degC by TR-FRET assay in presence of 2-(5-(3-(1-(5-(3-(2-chloro-4-fluorophenoxy)azetidin-1-yl)-4-(6-methoxypyridinium-3-yl)-4H-1,2,4-triazol-3-yl)-15-oxo-2,5,8,11-tetraoxa-14-azaoctadecan-18-yl)-1-ethyl-3-methyl-5-sulfoindolin-2-ylidene)penta-1,3-dienyl)-1 …. Format: cell-based.

SMILES strings stand for the structures.

By Kd is commonly meant the constant that tells how readily two partners part at equilibrium. One may read the Ki as the dissociation constant of the complex between target and ligand, obtained from inhibition or displacement.

T1 sequence (P30518 whole entry): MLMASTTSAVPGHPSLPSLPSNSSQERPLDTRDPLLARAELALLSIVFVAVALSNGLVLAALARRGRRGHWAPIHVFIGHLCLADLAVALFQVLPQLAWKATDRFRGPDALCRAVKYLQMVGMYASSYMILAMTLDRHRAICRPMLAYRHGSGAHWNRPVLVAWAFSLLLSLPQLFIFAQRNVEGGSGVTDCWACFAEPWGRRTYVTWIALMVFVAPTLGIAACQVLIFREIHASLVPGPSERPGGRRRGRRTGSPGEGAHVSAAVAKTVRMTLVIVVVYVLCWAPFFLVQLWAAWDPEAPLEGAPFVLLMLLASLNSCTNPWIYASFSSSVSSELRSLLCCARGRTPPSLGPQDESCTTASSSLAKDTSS
T2 sequence (P37288 whole entry): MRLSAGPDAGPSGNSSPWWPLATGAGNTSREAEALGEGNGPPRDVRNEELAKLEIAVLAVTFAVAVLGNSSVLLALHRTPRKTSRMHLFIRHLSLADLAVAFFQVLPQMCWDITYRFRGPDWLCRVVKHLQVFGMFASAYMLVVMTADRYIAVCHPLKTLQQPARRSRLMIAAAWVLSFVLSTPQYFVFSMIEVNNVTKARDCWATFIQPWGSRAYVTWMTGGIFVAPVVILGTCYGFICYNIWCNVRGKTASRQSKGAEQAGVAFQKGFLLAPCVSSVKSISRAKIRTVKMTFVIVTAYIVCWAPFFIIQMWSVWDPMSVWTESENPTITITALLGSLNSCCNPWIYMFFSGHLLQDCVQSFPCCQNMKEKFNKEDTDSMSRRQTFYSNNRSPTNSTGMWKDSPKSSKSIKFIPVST

In [1], `CCN1\C(=C/C=C/C=C/C2=[N+](CC)c3cc(S(=O)(=O)[O-])ccc3C2(C)C)C(C)(CCCC(=O)NCCOCCOCCOCCOCc2nnc(N3CC(Oc4ccc(F)cc4Cl)C3)n2-c2ccc(OC)nc2)c2cc(S(=O)(=O)O)ccc21.O=C(O)C(F)(F)F` (stereo not drawn) had a Retention_time of 3.94 min. For the same molecule, the Kd is 509 nM in data set [2], greater than 1000 nM in [3], 1.59 nM in data set [4] and greater than 1000 nM in data set [5]. In data set [6], the kon amounted to 4.03 ×10⁶ /M/min. For the same molecule, in [7], the koff turned out to be 10.9 ×10⁻³ /min.
With `CCN1\C(=C/C=C/C=C/C2=[N+](CC)c3cc(S(=O)(=O)[O-])ccc3C2(C)C)C(C)(CCCC(=O)NCCOCCOCCOCCOCCOCCOCCOCCOCc2nnc(N3CC(Oc4ccc(F)cc4Cl)C3)n2-c2ccc(OC)nc2)c2cc(S(=O)(=O)O)ccc21.O=C(O)C(F)(F)F` (stereo not drawn), the Retention_time in data set [1] worked out at 3.97 min. Besides, the Kd in data set [2] is 353 nM; in [3], greater than 1000 nM; in data set [4], 1.86 nM; in data set [5] it was greater than 1000 nM.
In the case of `CCN1\C(=C/C=C/C=C/C2=[N+](CC)c3cc(S(=O)(=O)[O-])ccc3C2(C)C)C(C)(CCCC(=O)ON2C(=O)CCC2=O)c2cc(S(=O)(=O)O)ccc21` (stereo not drawn), the Retention_time in data set [1] is recorded as 3.17 min.
On to `O=C(CCCCCNC(=O)c1ccc(-c2c3ccc(=O)cc-3oc3cc(O)ccc23)c(C(=O)O)c1)NCCNC(=O)CCc1ccc(S(=O)(=O)N(CC(=O)N/N=C2\C(=O)Nc3ccccc32)c2ccc(Cl)cc2)cc1`, for which the Retention_time in [1] stood at 4.68 min. The Kd is 135 nM in data set [2], 61 nM in data set [3], 1.73 nM in [4] and greater than 1000 nM in data set [5]. Besides, the Ratio in data set [8] is 35.
In turn, `COc1ccc(-n2c(COCCOCCOCCOCCNC(=O)CCCCCNC(=O)c3ccc(-c4c5ccc(=O)cc-5oc5cc(O)ccc45)c(C(=O)O)c3)nnc2N2CC(Oc3ccc(F)cc3Cl)C2)cn1.O=C(O)C(F)(F)F` showed a Retention_time in data set [1] of 4.38 min. For the same molecule, the Kd was greater than 1000 nM in data set [2], greater than 1000 nM in [3], 1.59 nM in data set [4] and greater than 1000 nM in [5]. Besides, in [6], the kon turned out to be 3.57 ×10⁶ /M/min. Besides, the koff in data set [7] came to 18.9 ×10⁻³ /min.
In the case of `O=C(CCCCCNC(=O)c1ccc2c(c1)C(=O)OC21c2ccc(O)cc2Oc2cc(O)ccc21)ON1C(=O)CCC1=O`, in data set [1], the Retention_time was determined as 4 min.
Consider `COc1ccc(-n2c(COCCOCCOCCOCCOCCOCCOCCOCCNC(=O)CCCCCNC(=O)c3ccc(-c4c5ccc(=O)cc-5oc5cc(O)ccc45)c(C(=O)O)c3)nnc2N2CC(Oc3ccc(F)cc3Cl)C2)cn1.O=C(O)C(F)(F)F`, for which the Retention_time in [1] turned out to be 4.39 min. Also, the Kd in data set [2] is greater than 1000 nM; in data set [3], greater than 1000 nM; in data set [4], 2.05 nM; in [5], greater than 1000 nM.
For `CCN1\C(=C/C=C/C=C/C2=[N+](CC)c3cc(S(=O)(=O)[O-])ccc3C2(C)C)C(C)(CCCC(=O)NCCNC(=O)CCc2ccc(S(=O)(=O)N(CC(=O)N/N=C3\C(=O)Nc4ccccc43)c3ccc(Cl)cc3)cc2)c2cc(S(=O)(=O)O)ccc21` (stereo not drawn), in data set [1], the Retention_time was 3.96 min. For the same molecule, the Kd was 30.5 nM in data set [2], 19.7 nM in data set [3], 1.37 nM in [4] and greater than 1000 nM in data set [5]. For the same molecule, the Ratio in data set [8] was found to be 14.
Regarding `Cc1ccn(Cc2ccc(C(=O)N3Cc4cnn(C)c4Nc4ccccc43)cc2C)n1`, the Ki in data set [9] came out at 27.8 nM; in data set [10] it was 6.22 nM; in data set [11], 913 nM; in [12], 18 nM; in data set [13], 6.6 nM.
